# Source: ChEMBL document CHEMBL1129930, “Analogues of methotrexate in rheumatoid arthritis. 2. Effects of 5-deazaaminopterin, 5,10-dideazaaminopterin, and analogues on type II collagen-induced arthritis in mice” (J Med Chem, 1997)
# Key:
# L1210 = assay: Concentration required to inhibit the growth of L1210 cells.; assay type: functional, cell-based; conditions: Mus musculus
# Mus musculus [1] = assay: Incidence of disease (mouse type II collagen) was scored as the percentage of animals within each experimental group that exhibited joint or limb inflammation on day 37 at intraperitoneal dose of 0.75 mg/kg (deaths observed at 1.5 mg/kg); assay type: functional
# Mus musculus [2] = assay: Incidence of disease (mouse type II collagen) was scored as the percentage of animals within each experimental group that exhibited joint or limb inflammation on day 23 at intraperitoneal dose of 0.094 mg/kg (deaths observed at 1.5 mg/kg); assay type: functional
# Mus musculus [3] = assay: Incidence of disease (mouse type II collagen) was scored as the percentage of animals within each experimental group that exhibited joint or limb inflammation on day 37 at intraperitoneal dose of 0.024 mg/kg (deaths observed at 1.5 mg/kg); assay type: functional
# Mus musculus [4] = assay: Incidence of disease (mouse type II collagen) was scored as the percentage of animals within each experimental group that exhibited joint or limb inflammation on day 37 at intraperitoneal dose of 0.047 mg/kg (deaths observed at 1.5 mg/kg); assay type: functional
# Mus musculus [5] = assay: Incidence of disease (mouse type II collagen) was scored as the percentage of animals within each experimental group that exhibited joint or limb inflammation on day 37 at intraperitoneal dose of 0.094 mg/kg (deaths observed at 1.5 mg/kg); assay type: functional
# Mus musculus [6] = assay: Incidence of disease (mouse type II collagen) was scored as the percentage of animals within each experimental group that exhibited joint or limb inflammation on day 37 at intraperitoneal dose of 0.19 mg/kg (deaths observed at 1.5 mg/kg); assay type: functional
# Mus musculus [7] = assay: Incidence of disease (mouse type II collagen) was scored as the percentage of animals within each experimental group that exhibited joint or limb inflammation on day 30 at intraperitoneal dose of 0.024 mg/kg (deaths observed at 1.5 mg/kg); assay type: functional
# Mus musculus [8] = assay: Incidence of disease (mouse type II collagen) was scored as the percentage of animals within each experimental group that exhibited joint or limb inflammation on day 30 at intraperitoneal dose of 0.047 mg/kg (deaths observed at 1.5 mg/kg); assay type: functional
# Mus musculus [9] = assay: Incidence of disease (mouse type II collagen) was scored as the percentage of animals within each experimental group that exhibited joint or limb inflammation on day 30 at intraperitoneal dose of 0.094 mg/kg (deaths observed at 1.5 mg/kg); assay type: functional
# Mus musculus [10] = assay: Incidence of disease (mouse type II collagen) was scored as the percentage of animals within each experimental group that exhibited joint or limb inflammation on day 44 at intraperitoneal dose of 0.094 mg/kg (deaths observed at 1.5 mg/kg); assay type: functional
# Mus musculus [11] = assay: Incidence of disease (mouse type II collagen) was scored as the percentage of animals within each experimental group that exhibited joint or limb inflammation on day 44 at intraperitoneal dose of 0.19 mg/kg (deaths observed at 1.5 mg/kg); assay type: functional
# Mus musculus [12] = assay: Incidence of disease (mouse type II collagen) was scored as the percentage of animals within each experimental group that exhibited joint or limb inflammation on day 44 at intraperitoneal dose of 0.38 mg/kg (deaths observed at 1.5 mg/kg); assay type: functional
# Mus musculus [13] = assay: Incidence of disease (mouse type II collagen) was scored as the percentage of animals within each experimental group that exhibited joint or limb inflammation on day 44 at intraperitoneal dose of 0.024 mg/kg (deaths observed at 1.5 mg/kg); assay type: functional
# Mus musculus [14] = assay: Incidence of disease (mouse type II collagen) was scored as the percentage of animals within each experimental group that exhibited joint or limb inflammation on day 44 at intraperitoneal dose of 0.047 mg/kg (deaths observed at 1.5 mg/kg); assay type: functional
# Mus musculus [15] = assay: Incidence of disease (mouse type II collagen) was scored as the percentage of animals within each experimental group that exhibited joint or limb inflammation on day 30 at intraperitoneal dose of 0.38 mg/kg (deaths observed at 1.5 mg/kg); assay type: functional
# Mus musculus [16] = assay: Incidence of disease (mouse type II collagen) was scored as the percentage of animals within each experimental group that exhibited joint or limb inflammation on day 30 at intraperitoneal dose of 0.75 mg/kg (deaths observed at 1.5 mg/kg); assay type: functional
# Mus musculus [17] = assay: Tested for antiinflammatory activity on mouse type II collagen arthritis as Paw swelling of all animals in each group on day 23 at intraperitoneal dose of 0.024 mg/kg; assay type: functional
# Mus musculus [18] = assay: Tested for antiinflammatory activity on mouse type II collagen arthritis as Paw swelling of all animals in each group on day 23 at intraperitoneal dose of 0.19 mg/kg; assay type: functional
# Mus musculus [19] = assay: Tested for antiinflammatory activity on mouse type II collagen arthritis as Paw swelling of all animals in each group on day 23 at intraperitoneal dose of 0.75 mg/kg; assay type: functional
# Mus musculus [20] = assay: Tested for antiinflammatory activity on mouse type II collagen arthritis as Paw swelling of all animals in each group on day 30 at intraperitoneal dose of 0.024 mg/kg; assay type: functional
# Mus musculus [21] = assay: Tested for antiinflammatory activity on mouse type II collagen arthritis as Paw swelling of all animals in each group on day 30 at intraperitoneal dose of 0.047 mg/kg; assay type: functional
# Mus musculus [22] = assay: Tested for antiinflammatory activity on mouse type II collagen arthritis as Paw swelling of all animals in each group on day 30 at intraperitoneal dose of 0.094 mg/kg; assay type: functional
# Mus musculus [23] = assay: Tested for antiinflammatory activity on mouse type II collagen arthritis as Paw swelling of all animals in each group on day 30 at intraperitoneal dose of 0.38 mg/kg; assay type: functional
# Mus musculus [24] = assay: Tested for antiinflammatory activity on mouse type II collagen arthritis as Paw swelling of all animals in each group on day 44 at intraperitoneal dose of 0.75 mg/kg; assay type: functional
# Mus musculus [25] = assay: Tested for antiinflammatory activity on mouse type II collagen arthritis as Paw swelling of all animals in each group on day 44 at intraperitoneal dose of 0.024 mg/kg; assay type: functional
# Mus musculus [26] = assay: Tested for antiinflammatory activity on mouse type II collagen arthritis as Paw swelling of all animals in each group on day 44 at intraperitoneal dose of 0.094 mg/kg; assay type: functional
# Mus musculus [27] = assay: Tested for antiinflammatory activity on mouse type II collagen arthritis as Paw swelling of all animals in each group on day 30 at intraperitoneal dose of 0.75 mg/kg; assay type: functional
# Mus musculus [28] = assay: Tested for antiinflammatory activity on mouse type II collagen arthritis as Paw swelling of all animals in each group on day 37 at intraperitoneal dose of 0.047 mg/kg; assay type: functional
# Mus musculus [29] = assay: Tested for antiinflammatory activity on mouse type II collagen arthritis as Paw swelling of all animals in each group on day 37 at intraperitoneal dose of 0.094 mg/kg; assay type: functional
# Mus musculus [30] = assay: Tested for antiinflammatory activity on mouse type II collagen arthritis as Paw swelling of all animals in each group on day 37 at intraperitoneal dose of 0.19 mg/kg; assay type: functional
# Mus musculus [31] = assay: Tested for antiinflammatory activity on mouse type II collagen arthritis as Paw swelling of all animals in each group on day 37 at intraperitoneal dose of 0.38 mg/kg; assay type: functional
# Mus musculus [32] = assay: Tested for antiinflammatory activity on mouse type II collagen arthritis as Paw swelling of all animals in each group on day 37 at intraperitoneal dose of 0.75 mg/kg; assay type: functional
smiles,measurement,setting,value
CCc1c(CN(C)c2ccc(C(=O)NC(CCC(=O)O)C(=O)O)cc2)cnc2nc(N)nc(N)c12 (stereo not drawn),IC50,L1210,1 nM
same,Animals,Mus musculus [1],14%
same,Animals,Mus musculus [2],0%
same,Animals,Mus musculus [3],0%
same,Animals,Mus musculus [4],50%
same,Animals,Mus musculus [5],25%
same,Animals,Mus musculus [6],12%
same,Animals,Mus musculus [7],0%
same,Animals,Mus musculus [8],12%
same,Animals,Mus musculus [9],12%
same,Animals,Mus musculus [10],25%
same,Animals,Mus musculus [11],12%
same,Animals,Mus musculus [12],0%
same,Animals,Mus musculus [13],25%
same,Animals,Mus musculus [14],88%
same,Animals,Mus musculus [15],0%
same,Animals,Mus musculus [16],14%
same,Paw swelling,Mus musculus [17],2.12 mm
same,Paw swelling,Mus musculus [18],2.11 mm
same,Paw swelling,Mus musculus [19],2.14 mm
same,Paw swelling,Mus musculus [20],2.22 mm
same,Paw swelling,Mus musculus [21],2.21 mm
same,Paw swelling,Mus musculus [22],2.14 mm
same,Paw swelling,Mus musculus [23],2.16 mm
same,Paw swelling,Mus musculus [24],2.18 mm
same,Paw swelling,Mus musculus [25],2.23 mm
same,Paw swelling,Mus musculus [26],2.27 mm
same,Paw swelling,Mus musculus [27],2.2 mm
same,Paw swelling,Mus musculus [28],2.33 mm
same,Paw swelling,Mus musculus [29],2.2 mm
same,Paw swelling,Mus musculus [30],2.17 mm
same,Paw swelling,Mus musculus [31],2.17 mm
same,Paw swelling,Mus musculus [32],2.2 mm
